Reference: PubChem BioAssay AID1259407 (Chemical Carcinogenesis Research Information System (CCRIS), 2018)
Calls of active or inactive are those of the source. The rule behind the calls is not given here.

System: CCRIS mutagenicity, Ames/micronucleus/aberration tests
Experiment: CCRIS mutagenicity studies
[1] = Test System: AMES SALMONELLA TYPHIMURIUM, Strain/Indicator: TA98, Metabolic Activation: NONE, Method: STANDARD PLATE
[2] = Test System: AMES SALMONELLA TYPHIMURIUM, Strain/Indicator: TA100, Metabolic Activation: NONE, Method: STANDARD PLATE
[3] = Test System: AMES SALMONELLA TYPHIMURIUM, Strain/Indicator: TA98, Metabolic Activation: RAT, LIVER, S-9, AROCLOR 1254, Method: STANDARD PLATE

## COP(=S)(OC)Oc1ccc(Sc2ccc(OP(=S)(OC)OC)cc2)cc1
Test System: AMES SALMONELLA TYPHIMURIUM, Strain/Indicator: TA97, Metabolic Activation: NONE, Method: STANDARD PLATE
  mutagenic call: inactive; negative
Test System: AMES SALMONELLA TYPHIMURIUM, Strain/Indicator: TA97, Metabolic Activation: S-9, Method: STANDARD PLATE
  mutagenic call: inactive; negative
[1]
  mutagenic call: inactive; negative
Test System: AMES SALMONELLA TYPHIMURIUM, Strain/Indicator: TA98, Metabolic Activation: S-9, Method: STANDARD PLATE
  mutagenic call: inactive; negative
Test System: AMES SALMONELLA TYPHIMURIUM, Strain/Indicator: TA98NR, Metabolic Activation: NONE, Method: STANDARD PLATE
  mutagenic call: active; positive
Test System: AMES SALMONELLA TYPHIMURIUM, Strain/Indicator: TA98NR, Metabolic Activation: S-9, Method: STANDARD PLATE
  mutagenic call: active; positive
[2]
  mutagenic call: inactive; negative
Test System: AMES SALMONELLA TYPHIMURIUM, Strain/Indicator: TA100, Metabolic Activation: S-9, Method: STANDARD PLATE
  mutagenic call: inactive; negative
Test System: AMES SALMONELLA TYPHIMURIUM, Strain/Indicator: TA102, Metabolic Activation: NONE, Method: STANDARD PLATE
  mutagenic call: inactive; negative
Test System: AMES SALMONELLA TYPHIMURIUM, Strain/Indicator: TA102, Metabolic Activation: S-9, Method: STANDARD PLATE
  mutagenic call: inactive; negative
Test System: AMES SALMONELLA TYPHIMURIUM, Strain/Indicator: TA1535, Metabolic Activation: NONE, Method: STANDARD PLATE
  mutagenic call: active; positive
Test System: AMES SALMONELLA TYPHIMURIUM, Strain/Indicator: TA1535, Metabolic Activation: S-9, Method: STANDARD PLATE
  mutagenic call: active; positive
Test System: AMES SALMONELLA TYPHIMURIUM, Strain/Indicator: YG7104, Metabolic Activation: NONE, Method: STANDARD PLATE
  mutagenic call: active; positive
Test System: AMES SALMONELLA TYPHIMURIUM, Strain/Indicator: YG7104, Metabolic Activation: S-9, Method: STANDARD PLATE
  mutagenic call: active; positive
Test System: AMES SALMONELLA TYPHIMURIUM, Strain/Indicator: YG7108, Metabolic Activation: NONE, Method: STANDARD PLATE
  mutagenic call: inactive; negative
Test System: AMES SALMONELLA TYPHIMURIUM, Strain/Indicator: YG7108, Metabolic Activation: S-9, Method: STANDARD PLATE
  mutagenic call: active; positive

## COS(=O)(=O)c1ccccc1
End Point: IN VITRO MICRONUCLEUS, Test System: MOUSE LYMPHOMA L5178Y CELLS, Metabolic Activation: NONE
  mutagenic call: active; positive
End Point: IN VITRO MICRONUCLEUS, Test System: MOUSE LYMPHOMA L5178Y CELLS, Metabolic Activation: RAT, LIVER, S-9
  mutagenic call: active; positive
End Point: In vitro micronucleus, Test System: Chinese Hamster Ovary (CHO-WBL) cells, Metabolic Activation: None
  mutagenic call: active; positive (p<0.05)
[2]
  mutagenic call: inactive; negative; response reported as weakly positive
Test System: AMES SALMONELLA TYPHIMURIUM, Strain/Indicator: TA100, Metabolic Activation: RAT, LIVER, S-9, Method: STANDARD PLATE
  mutagenic call: active; positive

## Nc1ccc(F)cc1
End Point: IN VITRO MICRONUCLEUS, Test System: CHL/IU CELLS, Metabolic Activation: RAT, LIVER, S-9, PHENOBARBITAL AND 5,6-BENZOFLAVONE
  mutagenic call: active; positive
Test System: AMES SALMONELLA TYPHIMURIUM, Strain/Indicator: TA98, Metabolic Activation: HAMSTER, LIVER, S-9, AROCLOR 1254, Method: STANDARD PLATE
  mutagenic call: active; positive
[1]
  mutagenic call: inactive; negative
[3]
  mutagenic call: active; positive
Test System: AMES SALMONELLA TYPHIMURIUM, Strain/Indicator: TA100, Metabolic Activation: HAMSTER, LIVER, S-9, AROCLOR 1254, Method: STANDARD PLATE
  mutagenic call: active; positive
[2]
  mutagenic call: inactive; negative
Test System: AMES SALMONELLA TYPHIMURIUM, Strain/Indicator: TA100, Metabolic Activation: RAT, LIVER, S-9, AROCLOR 1254, Method: STANDARD PLATE
  mutagenic call: active; positive
Test System: E. COLI, Strain/Indicator: WP2 UVRA, Metabolic Activation: NONE, Method: FLUCTUATION TEST
  mutagenic call: inactive; negative
Test System: MOUSE LYMPHOMA, Strain/Indicator: L5178Y (TK+/TK-), Metabolic Activation: NONE, Method: SUSPENSION/PLATE
  mutagenic call: active; positive. reevaluation of results: equivocal
Test System: Mouse lymphoma, Strain/Indicator: L5178Y (tk+/tk-), Metabolic Activation: Rat, Liver, S-9, Aroclor 1254, Method: Suspension/plate
  mutagenic call: inconclusive (previous evaluation equivocal)

## CC1CCC(C(C)C)C(O)C1 (configuration not stated)
End Point: IN VITRO CHROMOSOMAL ABERRATIONS, Test System: CHO CELLS, Metabolic Activation: NONE
  mutagenic call: active; positive
End Point: IN VITRO CHROMOSOMAL ABERRATIONS, Test System: TK6 HUMAN LYMPHOBLASTS, Metabolic Activation: NONE
  mutagenic call: active; positive

## CC(=O)Nc1ccc(Oc2ccc(NC(C)=O)cc2)cc1
[1]
  mutagenic call: inactive; negative
Test System: AMES SALMONELLA TYPHIMURIUM, Strain/Indicator: TA98, Metabolic Activation: RAT, LIVER, S-9, PCB, Method: STANDARD PLATE
  mutagenic call: inactive; negative
[2]
  mutagenic call: inactive; negative
Test System: AMES SALMONELLA TYPHIMURIUM, Strain/Indicator: TA100, Metabolic Activation: RAT, LIVER, S-9, PCB, Method: STANDARD PLATE
  mutagenic call: inactive; negative

## CCc1cccc(CC)c1NC(C)=O
Test System: AMES SALMONELLA TYPHIMURIUM, Strain/Indicator: TA98, Metabolic Activation: NONE, Method: PREINCUBATION
  mutagenic call: inactive; negative
Test System: AMES SALMONELLA TYPHIMURIUM, Strain/Indicator: TA98, Metabolic Activation: RAT, LIVER, MICROSOMES, PHENOBARBITAL, Method: PREINCUBATION
  mutagenic call: inactive; negative

## C1=Cc2c3ccc4ccccc4c3cc3cccc1c23
Test System: AMES SALMONELLA TYPHIMURIUM, Strain/Indicator: TA98, Metabolic Activation: HUMAN, LIVER, MICROSOMES, Method: STANDARD PLATE
  mutagenic call: active; positive
[1]
  mutagenic call: inactive; negative
Test System: AMES SALMONELLA TYPHIMURIUM, Strain/Indicator: TA98, Metabolic Activation: RAT, LIVER, HEPATOCYTES, Method: PREINCUBATION
  mutagenic call: active; positive
Test System: AMES SALMONELLA TYPHIMURIUM, Strain/Indicator: TA98, Metabolic Activation: RAT, LIVER, MICROSOMES, AROCLOR 1254, Method: STANDARD PLATE
  mutagenic call: active; positive
Test System: AMES SALMONELLA TYPHIMURIUM, Strain/Indicator: TA98, Metabolic Activation: RAT, LIVER, MICROSOMES, Method: STANDARD PLATE
  mutagenic call: active; positive
Test System: AMES SALMONELLA TYPHIMURIUM, Strain/Indicator: TA98, Metabolic Activation: RAT, LIVER, S-9, AROCLOR 1254 (0.4, 0.8, 1.15 OR 1.5 MG/PLATE), Method: STANDARD PLATE
  mutagenic call: active; positive
[3]
  mutagenic call: active; positive
Test System: AMES SALMONELLA TYPHIMURIUM, Strain/Indicator: TA98, Metabolic Activation: RAT, LUNG, MICROSOMES, AROCLOR 1254, Method: STANDARD PLATE
  mutagenic call: active; positive
Test System: AMES SALMONELLA TYPHIMURIUM, Strain/Indicator: TA98, Metabolic Activation: RAT, LUNG, MICROSOMES, Method: STANDARD PLATE
  mutagenic call: inactive; negative
Test System: CHINESE HAMSTER OVARY, Strain/Indicator: V-79/6-THIOGUANINE, Metabolic Activation: RAT, LIVER, S-9, AROCLOR 1254, Method: FLASK ASSAY
  mutagenic call: active; positive
Test System: CHINESE HAMSTER OVARY, Strain/Indicator: V-79/6-THIOGUANINE, Metabolic Activation: SHE CELL MEDIATED, Method: FLASK ASSAY
  mutagenic call: inactive; negative
Test System: CHINESE HAMSTER V-79, Strain/Indicator: V-79/6-THIOGUANINE, Metabolic Activation: RAT, LIVER, S-9, AROCLOR 1254, Method: SUSPENSION/PLATE
  mutagenic call: active; positive
Test System: UDS RAT HEPATOCYTES, Strain/Indicator: THY INCORP, Metabolic Activation: NONE, Method: LIQUID SCINTILLATION COUNTING
  mutagenic call: active; positive
